Where two headings read alike, the source gives them in different places.
What was measured:
Format in all cases: cell-based
[1] = test system: mixture of 12 microorganisms; experiment: Calculation of synergism of 573 and 651 combinations (Kull et al. method); settings: for SI (synergy index, Qa'/QA + Qb'/.75 QB): <1 synergism, 1 additivity, >1 antagonism
Experimental: (§1) Each single culture was inoculated to TSB agar slants and incubated for 2 days at 30° C. for C. albicans and all bacteria except E. coli and S. aureus, which were at 37° C., and incubated for 10-14 days at 25° C. for fungal cultures. The bacteria and fungi were then washed off the slants with phosphate buffer (0.125 M, pH 7.2) and inoculated into each test tube containing a given concentration and ratio of 573 and 886 to make final cell concentration of about 2×10^7 bacteria and 2×10^6 fungi per ml. […] Seven days after inoculation, 5 microliter of sample from each test tube (containing about 10^5 bacteria and 10^4 fungi from original inoculation) was removed and assessed for viable organisms by 1:50 dilution into TSB medium and checked for regrowth. No viable organisms were detected from the test tubes where MICs were observed. […] Each test tube was reinoculated 2 more times (a total of 3 inoculations) to determine the capacity and the longlasting activity of the combinations.
Synergism is determined by the industrially accepted method described by Kull, F. C.; Eisman, P. C.; Sylvestrowicz, H. D. and Mayer, R. L. in Applied Microbiology 9:538-541 (1961) using the ratio determined by [formula] wherein QA=concentration of compound A in parts per million (ppm), acting alone, which produced an end point
Qa=concentration of compound A in ppm, in the mixture, which produced an end point
QB=concentration of compound B in ppm, acting alone, which produced an end point
Qb=concentration of compound B in ppm, in the mixture, which produced an end point
When the sum of Qa/QA plus Qb/QB is greater than one, antagonism is indicated. When the sum is equal to one, additivity is indicated, and when the sum is less than one, synergism is indicated.
(§2) As shown, a wide range of concentration and ratios was tested. More importantly all the critical end-point activities for the combinations were covered. […] Thus, the end-point activities are based on the minimum concentrations of a given ratio of combination product that inhibit all three inoculations.
The end-point activity (MIC in ppm) is taken from Table 1.
QA is the end-point activity of 573 alone
QB is the end-point activity of 886 alone
Qa is the end-point activity 573 in the mixture of 573 and 886
Qb is the end-point activity of 886 in the mixture of 573 and 886.
Since 886 is 25% 573 and 75% 651, the total 573 (Qa') in the combinations is Qa+25% Qb, and the total 651 (Qb') in the combinations is 75% Qb. Total concentration of 573 and 651 in the mixture is Qa' and Qb'. The % 573 in the mixture is Qa'/(Qa'+Qb'), and %651 in the mixture is Qb'/(Qa'+Qb'.)
Therefore, the calculation of synergy index (SI) is Qa'/QA+Qb'/.75 QB. The most preferred synergy for 573 and 651 combinations is seen at 2.3%-4.5% of 651. Taking the synergy index of less than 0.5 as most significant, then a range of 2.3% to 8.5% of 651 in the 573/651 combinations is preferred.

[2] = Growth inhibition / minimum inhibitory concentration (MIC) by 2-fold serial dilutions in Trypticase Soy Broth, 3 inoculations; settings: read-out: End-point activity (MIC) QA (573 alone); as to Growth after inoculation: key: -: growth inhibited; +: growth not inhibited
Experimental: as §1, §2

[3] = test system: mixture of the following 12 microorganisms: Escherichia coli, Candida albicans, Pseudomonas oleovarans, Pseudomonas aeruginosa, Staphylococcus aureus …; experiment: as above
Experimental: as §1, §2

[4] = Expt. 1, all three inoculations
[5] = Expt. 2, all three inoculations

SMILES: Cn1sccc1=O [compound 573, 2-methyl-4-isothiazolin-3-one]
- Qa'/QA ([1]; Expt. 1): 1.00
- Qb'/QB* (QB* = QB × 75%) ([1]; Expt. 1): 0.00
- Total 573 Qa' (Qa + 25% Qb) at end-point ([1]; Expt. 1): 500.0 ppm
- Total ppm Qa' + Qb' at end-point ([1]; Expt. 1): 500.0 ppm
- SI (synergy index, Qa'/QA + Qb'/.75 QB) ([1]; Expt. 1): 1.00
- Qa'/QA ([1]; Expt. 2): 1.00
- Qb'/QB* (QB* = QB × 75%) ([1]; Expt. 2): 0.00
- Total 573 Qa' (Qa + 25% Qb) at end-point ([1]; Expt. 2): 125.0 ppm
- Total ppm Qa' + Qb' at end-point ([1]; Expt. 2): 125.0 ppm
- SI (synergy index, Qa'/QA + Qb'/.75 QB) ([1]; Expt. 2): 1.00
- MIC [2, 4]: 500 µg/mL
- MIC [2, 5]: 125 µg/mL
- Growth after inoculation ([3]; Expt. 1, 1st inoculation, 573(A) 0.5 ppm): +
- Growth after inoculation ([3]; Expt. 1, 1st inoculation, 573(A) 1.0 ppm): +
- Growth after inoculation ([3]; Expt. 1, 1st inoculation, 573(A) 2.0 ppm): +
- Growth after inoculation ([3]; Expt. 1, 1st inoculation, 573(A) 3.9 ppm): +
- Growth after inoculation ([3]; Expt. 1, 1st inoculation, 573(A) 9.8 ppm): +
- Growth after inoculation ([3]; Expt. 1, 1st inoculation, 573(A) 15.6 ppm): +
- Growth after inoculation ([3]; Expt. 1, 1st inoculation, 573(A) 31.2 ppm): +
- Growth after inoculation ([3]; Expt. 1, 1st inoculation, 573(A) 62.5 ppm): +
- Growth after inoculation ([3]; Expt. 1, 1st inoculation, 573(A) 125.0 ppm): +
- Growth after inoculation ([3]; Expt. 1, 1st inoculation, 573(A) 250.0 ppm): -
- Growth after inoculation ([3]; Expt. 1, 1st inoculation, 573(A) 500.0 ppm): -
- Growth after inoculation ([3]; Expt. 1, 2nd inoculation, 573(A) 0.5 ppm): +
- Growth after inoculation ([3]; Expt. 1, 2nd inoculation, 573(A) 1.0 ppm): +
- Growth after inoculation ([3]; Expt. 1, 2nd inoculation, 573(A) 2.0 ppm): +
- Growth after inoculation ([3]; Expt. 1, 2nd inoculation, 573(A) 3.9 ppm): +
- Growth after inoculation ([3]; Expt. 1, 2nd inoculation, 573(A) 9.8 ppm): +
- Growth after inoculation ([3]; Expt. 1, 2nd inoculation, 573(A) 15.6 ppm): +
- Growth after inoculation ([3]; Expt. 1, 2nd inoculation, 573(A) 31.2 ppm): +
- Growth after inoculation ([3]; Expt. 1, 2nd inoculation, 573(A) 62.5 ppm): +
- Growth after inoculation ([3]; Expt. 1, 2nd inoculation, 573(A) 125.0 ppm): +
- Growth after inoculation ([3]; Expt. 1, 2nd inoculation, 573(A) 250.0 ppm): +
- Growth after inoculation ([3]; Expt. 1, 2nd inoculation, 573(A) 500.0 ppm): -
- Growth after inoculation ([3]; Expt. 1, 3rd inoculation, 573(A) 0.5 ppm): +
- Growth after inoculation ([3]; Expt. 1, 3rd inoculation, 573(A) 1.0 ppm): +
- Growth after inoculation ([3]; Expt. 1, 3rd inoculation, 573(A) 2.0 ppm): +
- Growth after inoculation ([3]; Expt. 1, 3rd inoculation, 573(A) 3.9 ppm): +
- Growth after inoculation ([3]; Expt. 1, 3rd inoculation, 573(A) 9.8 ppm): +
- Growth after inoculation ([3]; Expt. 1, 3rd inoculation, 573(A) 15.6 ppm): +
- Growth after inoculation ([3]; Expt. 1, 3rd inoculation, 573(A) 31.2 ppm): +
- Growth after inoculation ([3]; Expt. 1, 3rd inoculation, 573(A) 62.5 ppm): +
- Growth after inoculation ([3]; Expt. 1, 3rd inoculation, 573(A) 125.0 ppm): +
- Growth after inoculation ([3]; Expt. 1, 3rd inoculation, 573(A) 250.0 ppm): +
- Growth after inoculation ([3]; Expt. 1, 3rd inoculation, 573(A) 500.0 ppm): -
- End-point activity (MIC) Qa (573 in the mixture of 573 and 886) [3, 4]: 500.0 ppm
- Growth after inoculation ([3]; Expt. 2, 1st inoculation, 573(A) 0.5 ppm): +
- Growth after inoculation ([3]; Expt. 2, 1st inoculation, 573(A) 1.0 ppm): +
- Growth after inoculation ([3]; Expt. 2, 1st inoculation, 573(A) 2.0 ppm): +
- Growth after inoculation ([3]; Expt. 2, 1st inoculation, 573(A) 3.9 ppm): +
- Growth after inoculation ([3]; Expt. 2, 1st inoculation, 573(A) 9.8 ppm): +
- Growth after inoculation ([3]; Expt. 2, 1st inoculation, 573(A) 15.6 ppm): +
- Growth after inoculation ([3]; Expt. 2, 1st inoculation, 573(A) 31.2 ppm): +
- Growth after inoculation ([3]; Expt. 2, 1st inoculation, 573(A) 62.5 ppm): +
- Growth after inoculation ([3]; Expt. 2, 1st inoculation, 573(A) 125.0 ppm): -
- Growth after inoculation ([3]; Expt. 2, 1st inoculation, 573(A) 250.0 ppm): -
- Growth after inoculation ([3]; Expt. 2, 1st inoculation, 573(A) 500.0 ppm): -
- Growth after inoculation ([3]; Expt. 2, 2nd inoculation, 573(A) 0.5 ppm): +
- Growth after inoculation ([3]; Expt. 2, 2nd inoculation, 573(A) 1.0 ppm): +
- Growth after inoculation ([3]; Expt. 2, 2nd inoculation, 573(A) 2.0 ppm): +
- Growth after inoculation ([3]; Expt. 2, 2nd inoculation, 573(A) 3.9 ppm): +
- Growth after inoculation ([3]; Expt. 2, 2nd inoculation, 573(A) 9.8 ppm): +
- Growth after inoculation ([3]; Expt. 2, 2nd inoculation, 573(A) 15.6 ppm): +
- Growth after inoculation ([3]; Expt. 2, 2nd inoculation, 573(A) 31.2 ppm): +
- Growth after inoculation ([3]; Expt. 2, 2nd inoculation, 573(A) 62.5 ppm): +
- Growth after inoculation ([3]; Expt. 2, 2nd inoculation, 573(A) 125.0 ppm): -
- Growth after inoculation ([3]; Expt. 2, 2nd inoculation, 573(A) 250.0 ppm): -
- Growth after inoculation ([3]; Expt. 2, 2nd inoculation, 573(A) 500.0 ppm): -
- Growth after inoculation ([3]; Expt. 2, 3rd inoculation, 573(A) 0.5 ppm): +
- Growth after inoculation ([3]; Expt. 2, 3rd inoculation, 573(A) 1.0 ppm): +
- Growth after inoculation ([3]; Expt. 2, 3rd inoculation, 573(A) 2.0 ppm): +
- Growth after inoculation ([3]; Expt. 2, 3rd inoculation, 573(A) 3.9 ppm): +
- Growth after inoculation ([3]; Expt. 2, 3rd inoculation, 573(A) 9.8 ppm): +
- Growth after inoculation ([3]; Expt. 2, 3rd inoculation, 573(A) 15.6 ppm): +
- Growth after inoculation ([3]; Expt. 2, 3rd inoculation, 573(A) 31.2 ppm): +
- Growth after inoculation ([3]; Expt. 2, 3rd inoculation, 573(A) 62.5 ppm): +
- Growth after inoculation ([3]; Expt. 2, 3rd inoculation, 573(A) 125.0 ppm): -
- Growth after inoculation ([3]; Expt. 2, 3rd inoculation, 573(A) 250.0 ppm): -
- Growth after inoculation ([3]; Expt. 2, 3rd inoculation, 573(A) 500.0 ppm): -
- End-point activity (MIC) Qa (573 in the mixture of 573 and 886) [3, 5]: 125.0 ppm
- Contribution to the overall activity of 886 ([3]; at very low concentrations (<8 ppm)): does not contribute significantly to the overall activity of 886

Source: patent publication US5100905A, “Method for inhibiting growth of bacteria, fungi or algae by treatment with biocide composition” (Rohm and Haas Company, priority 1991, dated 1992)
